Target: T1, cathepsin K (Homo sapiens, UniProt P43235)
T1 sequence (P43235 115-329): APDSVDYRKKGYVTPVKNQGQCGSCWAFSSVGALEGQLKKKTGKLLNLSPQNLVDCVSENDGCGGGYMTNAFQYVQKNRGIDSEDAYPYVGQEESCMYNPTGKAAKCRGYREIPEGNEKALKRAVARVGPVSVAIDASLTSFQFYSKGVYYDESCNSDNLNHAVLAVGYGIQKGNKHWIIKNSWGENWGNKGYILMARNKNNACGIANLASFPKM
Test: Determination of cathepsin K proteolytic catalytic activity; inhibition studies (progress curve method)
Format: biochemical
Conditions: human recombinant enzyme, fluorogenic substrate Cbz-Phe-Arg-AMC, pH 5.5
Method: Determination of cathepsin K proteolytic catalytic activity
All assays for cathepsin K were carried out with human recombinant enzyme. Standard assay conditions for the determination of kinetic constants used a fluorogenic peptide substrate, typically Cbz-Phe-Arg-AMC, and were determined in 100 mM Na acetate at pH 5.5 containing 20 mM cysteine and 5 mM EDTA. Stock substrate solutions were prepared at concentrations of 10 or 20 mM in DMSO with 20 uM final substrate concentration in the assays. All assays contained 10% DMSO. […] All assays were conducted at ambient temperature. Product fluorescence (excitation at 360 nm; emission at 460 nm) was monitored with a Perceptive Biosystems Cytofluor II fluorescent plate reader. […]
Potential inhibitors were evaluated using the progress curve method. […] For those compounds whose progress curves were linear, apparent inhibition constants (Ki,app) were calculated according to equation 1 (Brandt et al., Biochemitsry, 1989, 28, 140): […]
[AMC]=νSSt+(ν0−νSS) [I−exp(−kobst)]/kobs (2) where [AMC] is the concentration of product formed over time t, ν0 is the initial reaction velocity and νSS is the final steady state rate. Values for kobs were then analyzed as a linear function of inhibitor concentration to generate an apparent second order rate constant (kobs/inhibitor concentration or kobs/[1]) describing the time-dependent inhibition. […]

- Ki: > 10 µM
SMILES: CC(C)C[C@H](NS(=O)(=O)c1cccc2cccnc12)C(=O)NC1COCC1=O (mixture of isomers) [4-(R,S)-Amino-N-[(8-quinolinesulfonyl)-S-leucine]-3-tetrahydrofuran-3-one]

— patent publication US20040180927A1, “Inhibitors of cysteine protease” (SmithKline Beecham Corporation, priority 1996, published 2004)
